IC50, microsomal CLint and Ratio IC50 data for 20 compounds are collected here from ChEMBL document CHEMBL3091324, “The optimization of aminooxadiazoles as orally active inhibitors of Cdc7” (Bioorg Med Chem Lett, 2013).

A value given as a limit tells only on which side of the number the result lay.

Usually IC50 stands for the concentration that inhibits the measured activity by half. The low end stands for greater potency, the high end for weaker potency.

The target of data set [1] is CDC7/DBF4 (Cell division cycle 7-related protein kinase/Activator of S phase kinase) (Homo sapiens, UniProt O00311). Kind of data set: Inhibition of Cdc7/Dbf4 (unknown origin)-mediated MCM2 phosphorylation at Ser53 by protein A amplified luminescent proximity homogeneous assay. Type of data set: protein-complex assay.
Sequence of CDC7/DBF4 (Cell division cycle 7-related protein kinase/Activator of S phase kinase) (Q9UBU7 whole entry): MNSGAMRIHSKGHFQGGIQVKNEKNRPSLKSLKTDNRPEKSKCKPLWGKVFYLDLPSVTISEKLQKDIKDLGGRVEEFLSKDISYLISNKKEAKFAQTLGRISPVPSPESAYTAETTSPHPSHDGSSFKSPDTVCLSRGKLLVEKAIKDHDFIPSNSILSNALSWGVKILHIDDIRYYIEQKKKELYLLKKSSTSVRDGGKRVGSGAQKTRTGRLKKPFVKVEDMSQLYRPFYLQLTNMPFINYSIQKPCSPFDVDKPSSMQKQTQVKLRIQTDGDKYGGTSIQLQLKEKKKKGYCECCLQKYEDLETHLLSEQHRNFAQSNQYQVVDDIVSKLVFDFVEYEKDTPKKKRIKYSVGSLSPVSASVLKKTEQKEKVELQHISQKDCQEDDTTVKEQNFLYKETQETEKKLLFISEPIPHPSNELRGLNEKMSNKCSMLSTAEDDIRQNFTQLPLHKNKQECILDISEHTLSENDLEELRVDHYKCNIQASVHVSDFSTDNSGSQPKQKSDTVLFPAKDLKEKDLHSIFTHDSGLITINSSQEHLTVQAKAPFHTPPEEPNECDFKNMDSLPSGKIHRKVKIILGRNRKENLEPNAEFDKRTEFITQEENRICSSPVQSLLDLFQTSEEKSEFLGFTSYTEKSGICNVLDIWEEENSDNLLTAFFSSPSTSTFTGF
Sequence of CDC7/DBF4 (Cell division cycle 7-related protein kinase/Activator of S phase kinase) (O00311 whole entry): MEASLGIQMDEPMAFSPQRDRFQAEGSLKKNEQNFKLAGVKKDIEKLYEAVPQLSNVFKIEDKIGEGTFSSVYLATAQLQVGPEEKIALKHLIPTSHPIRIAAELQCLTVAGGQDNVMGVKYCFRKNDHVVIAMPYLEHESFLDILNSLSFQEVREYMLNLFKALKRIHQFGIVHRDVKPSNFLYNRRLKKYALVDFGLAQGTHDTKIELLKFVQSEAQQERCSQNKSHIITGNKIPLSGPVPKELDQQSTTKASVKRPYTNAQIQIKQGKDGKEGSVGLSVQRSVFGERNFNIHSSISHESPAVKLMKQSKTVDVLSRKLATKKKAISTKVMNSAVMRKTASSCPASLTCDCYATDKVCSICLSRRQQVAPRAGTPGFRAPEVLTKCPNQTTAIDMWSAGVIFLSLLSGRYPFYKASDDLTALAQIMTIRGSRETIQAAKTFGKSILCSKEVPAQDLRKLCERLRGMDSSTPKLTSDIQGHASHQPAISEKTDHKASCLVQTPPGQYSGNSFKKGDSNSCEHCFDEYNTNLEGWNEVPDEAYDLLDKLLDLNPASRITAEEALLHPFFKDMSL
Data set [2] deals with Cell division cycle 7-related protein kinase (Homo sapiens, UniProt O00311). Kind of data set: Inhibition of Cdc7-mediated MCM2 phosphorylation at Ser53 in human HCT116 cells after 14 hrs by immunostaining assay. The format is cell-based, HCT-116.
Sequence of Cell division cycle 7-related protein kinase (O00311 whole entry): as above
A short description of data set [3]: Intrinsic clearance in human liver microsomes. The format is ADME. As to conditions: read-out: CLH.
In data set [4] the target is CDK9/cyclin T1 (Homo sapiens, UniProt P50750). Kind of data set: Inhibition of CDK9/cyclin T1 (unknown origin) using 4eBP1 ULight peptide as substrate by HTRF assay. Type of data set: protein-complex assay. On the technique in general: TR-FRET usually uses a lanthanide donor and a delayed reading to cut background.
Sequence of CDK9/cyclin T1 (O60563 whole entry): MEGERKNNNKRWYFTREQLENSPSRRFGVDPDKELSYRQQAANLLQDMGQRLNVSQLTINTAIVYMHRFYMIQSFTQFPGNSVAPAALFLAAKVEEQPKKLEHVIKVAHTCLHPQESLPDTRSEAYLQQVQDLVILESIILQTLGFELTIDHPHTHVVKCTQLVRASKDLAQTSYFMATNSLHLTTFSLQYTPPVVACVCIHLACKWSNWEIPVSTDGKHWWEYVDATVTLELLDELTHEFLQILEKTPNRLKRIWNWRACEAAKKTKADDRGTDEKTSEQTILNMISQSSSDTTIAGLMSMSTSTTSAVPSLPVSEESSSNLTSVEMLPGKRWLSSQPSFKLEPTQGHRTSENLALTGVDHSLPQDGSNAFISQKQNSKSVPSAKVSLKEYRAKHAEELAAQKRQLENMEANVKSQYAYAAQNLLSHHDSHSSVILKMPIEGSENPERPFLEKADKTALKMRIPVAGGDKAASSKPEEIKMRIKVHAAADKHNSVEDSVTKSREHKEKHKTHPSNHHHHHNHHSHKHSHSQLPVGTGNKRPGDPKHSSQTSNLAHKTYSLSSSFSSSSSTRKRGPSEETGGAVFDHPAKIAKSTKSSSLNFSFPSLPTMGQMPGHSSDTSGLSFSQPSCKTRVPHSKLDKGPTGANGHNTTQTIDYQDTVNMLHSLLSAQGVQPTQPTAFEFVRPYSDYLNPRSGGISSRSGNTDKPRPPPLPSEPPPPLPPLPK
Sequence of CDK9/cyclin T1 (P50750 whole entry): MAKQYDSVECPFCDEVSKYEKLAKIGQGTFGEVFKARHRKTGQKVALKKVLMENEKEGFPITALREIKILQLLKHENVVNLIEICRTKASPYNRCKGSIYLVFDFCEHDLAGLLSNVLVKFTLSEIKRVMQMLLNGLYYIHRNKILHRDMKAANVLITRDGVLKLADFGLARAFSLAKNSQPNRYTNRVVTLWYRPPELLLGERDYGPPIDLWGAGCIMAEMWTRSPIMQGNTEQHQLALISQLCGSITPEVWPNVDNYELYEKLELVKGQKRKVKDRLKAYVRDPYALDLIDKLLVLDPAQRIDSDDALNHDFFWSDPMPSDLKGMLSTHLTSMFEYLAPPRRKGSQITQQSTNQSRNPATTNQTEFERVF
Data set [5] deals with Cyclin-dependent kinase 2/cyclin E1 (Homo sapiens, UniProt P24941). Kind of data set: Inhibition of CDK2/cyclin E (unknown origin) using ULight peptide as substrate by HTRF assay. Type of data set: protein-complex assay.
Data set [6] deals with Cyclin-dependent kinase 1/cyclin B1 (Homo sapiens, UniProt P06493). Kind of data set: Inhibition of CDK1/cyclin B (unknown origin) by HTRF assay. Type of data set: protein-complex assay.
Sequence of Cyclin-dependent kinase 1/cyclin B1 (P06493 whole entry): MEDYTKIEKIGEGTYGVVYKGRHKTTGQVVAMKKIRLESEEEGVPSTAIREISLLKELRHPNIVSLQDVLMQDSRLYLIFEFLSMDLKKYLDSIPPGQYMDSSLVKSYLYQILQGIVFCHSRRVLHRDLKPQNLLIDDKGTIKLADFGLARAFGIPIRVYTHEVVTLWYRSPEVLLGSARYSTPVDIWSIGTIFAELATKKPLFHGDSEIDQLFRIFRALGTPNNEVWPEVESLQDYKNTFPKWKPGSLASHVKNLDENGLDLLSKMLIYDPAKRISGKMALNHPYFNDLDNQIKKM
Sequence of Cyclin-dependent kinase 1/cyclin B1 (P14635 whole entry, further chain): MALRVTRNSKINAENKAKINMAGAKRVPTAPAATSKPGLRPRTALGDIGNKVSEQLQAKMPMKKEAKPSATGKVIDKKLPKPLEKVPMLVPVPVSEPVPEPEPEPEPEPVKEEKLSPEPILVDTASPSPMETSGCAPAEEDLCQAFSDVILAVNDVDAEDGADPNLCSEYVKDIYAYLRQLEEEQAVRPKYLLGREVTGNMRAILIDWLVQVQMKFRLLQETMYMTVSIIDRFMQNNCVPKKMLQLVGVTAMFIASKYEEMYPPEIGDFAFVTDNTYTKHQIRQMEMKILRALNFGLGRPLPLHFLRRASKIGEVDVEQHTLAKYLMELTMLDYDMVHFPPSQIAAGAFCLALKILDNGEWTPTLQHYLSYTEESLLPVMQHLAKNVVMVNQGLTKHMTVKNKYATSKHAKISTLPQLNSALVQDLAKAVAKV
Data set [7] can be described thus: Intrinsic clearance in rat liver microsomes. The format is ADME. The note with it: read-out: CLH. (In general: Liver microsomes are a subcellular fraction often used to study metabolism.)
Data set [8] is filed under the species Homo sapiens. Kind of data set: Selectivity ratio of IC50 for CDK2/cyclin E (unknown origin) to IC50 for Cdc7/Dbf4 (unknown origin).

Turning to `Fc1ccccc1[C@H](Nc1nnc(-c2c[nH]c3ncncc23)o1)C1CC1`, the IC50 is 0.0015 µM in data set [1]; 0.13 µM in data set [2]; 0.88 µM in data set [4]; 0.75 µM in data set [5]; over 50 µM in data set [6]. For the same compound, the microsomal CLint was under 14 µL/min/mg in data set [3] and 34 µL/min/mg in data set [7].
In the case of `CC(C)(Nc1nnc(-c2c[nH]c3ncccc23)o1)c1ccccc1`, the figures for the IC50 in data set [1], in data set [2] and in data set [5] were 0.12 µM, 6.2 µM and 0.007 µM, respectively. Besides, the results for the microsomal CLint in data set [3] and in data set [7] were 30 µL/min/mg and 35 µL/min/mg, respectively.
With `c1ccc([C@H](Nc2nnc(-c3c[nH]c4ncccc34)o2)C2CC2)cc1`, the IC50 in data set [1] was determined as 0.001 µM; in data set [2], 0.071 µM; in data set [5] it was 1.6 µM. Moreover, the microsomal CLint in data set [3] turned out to be 56 µL/min/mg; in data set [7], 31 µL/min/mg.
Taken in the same sequence, the figures for `Nc1n[nH]c2ccc(-c3nnc(NCc4ccccc4)o3)cc12` were 0.011 µM, 1.2 µM, 0.23 µM, 26 µL/min/mg and 74 µL/min/mg.
Take `Fc1cc2cc(-c3nnc(NCc4ccccc4)o3)ccc2cn1`: the IC50 in data set [1] worked out at 0.01 µM; in data set [2] it was 3.2 µM; in data set [5], 6.8 µM. Besides, the values for the microsomal CLint in data set [3] and in data set [7] were 49 µL/min/mg and 56 µL/min/mg, respectively.
Turning to `Fc1ccc(CNc2nnc(-c3c[nH]c4ncccc34)o2)cc1`, the figures for the IC50 in data set [1], in data set [2] and in data set [5] were 0.025 µM, 0.69 µM and 0.098 µM, respectively. The values for the microsomal CLint in data set [3] and in data set [7] were 47 µL/min/mg and 58 µL/min/mg, respectively. Further, the Ratio IC50 in data set [8] amounted to 4.
As for `c1cnc2[nH]cc(-c3nnc(NCc4ccncc4)o3)c2c1`, the IC50 in data set [1] stood at 0.11 µM; in data set [2], 12 µM; in data set [5] it was 0.35 µM. Moreover, the microsomal CLint in data set [3] was under 14 µL/min/mg; in data set [7], 37 µL/min/mg.
Regarding `Fc1cccc(CNc2nnc(-c3c[nH]c4ncccc34)o2)c1`, the IC50 in data set [1] is 0.01 µM; in data set [2], 0.58 µM; in data set [5] it was 0.061 µM. Besides, the microsomal CLint is 54 µL/min/mg in data set [3] and 71 µL/min/mg in data set [7]. For the same compound, the Ratio IC50 in data set [8] worked out at 6.
As to `c1ccc(CNc2nnc(-c3nc4ccncc4s3)o2)cc1`, the IC50 is 2.3 µM in data set [1], over 50 µM in data set [2] and 19 µM in data set [5]. The microsomal CLint in data set [3] worked out at 23 µL/min/mg; in data set [7] it was 66 µL/min/mg.
Taken in the same sequence, the figures for `c1ccc(CNc2nnc(-c3c[nH]c4ncccc34)o2)nc1` were 0.17 µM, 13 µM, 2.5 µM, under 14 µL/min/mg and 14 µL/min/mg.
Taken in the same sequence, the figures for `c1cncc(CNc2nnc(-c3c[nH]c4ncccc34)o2)c1` were 0.19 µM, 7.1 µM, 0.61 µM, under 14 µL/min/mg and 30 µL/min/mg.
Taken in the same sequence, the figures for `CC[C@@H](Nc1nnc(-c2c[nH]c3ncccc23)o1)c1ccccc1` were 0.004 µM, 0.15 µM, 1.7 µM, 70 µL/min/mg and 29 µL/min/mg.
Consider `c1ccc(CNc2nnc(-c3ccc4[nH]ncc4c3)o2)cc1`, for which the IC50 was found to be 0.02 µM in data set [1], 0.73 µM in data set [2] and 0.17 µM in data set [5]. In addition, the microsomal CLint in data set [3] was found to be 98 µL/min/mg; in data set [7], 402 µL/min/mg.
As to `O=c1[nH]c2ccc(-c3nnc(NCc4ccccc4)o3)cc2o1`, the IC50 in data set [1] is 0.59 µM; in data set [2] it was over 50 µM; in data set [5] it was 47 µM. For the same compound, the microsomal CLint in data set [3] amounted to 69 µL/min/mg; in data set [7], 30 µL/min/mg.
On to `c1ccc(CNc2nnc(-c3c[nH]c4ncccc34)o2)cc1`, for which the IC50 amounted to 0.024 µM in data set [1], 0.78 µM in data set [2] and 0.15 µM in data set [5]. Besides, the microsomal CLint in data set [3] was 31 µL/min/mg; in data set [7], 40 µL/min/mg. Also, the Ratio IC50 in data set [8] was 6.
For the compound `O=C1Cc2cc(-c3nnc(NCc4ccccc4)o3)ccc2N1`, the concentration for half-maximal inhibition (IC50) is 0.77 µM in data set [1], over 50 µM in data set [2] and 33 µM in data set [5]. In addition, the microsomal CLint in data set [3] and in data set [7] was under 14 µL/min/mg each time.
For the compound `CC(C)[C@@H](Nc1nnc(-c2c[nH]c3ncccc23)o1)c1ccccc1`, the IC50 in data set [1] is 0.002 µM; in data set [2], 0.14 µM; in data set [5] it was 1.2 µM. The microsomal CLint was 66 µL/min/mg in data set [3] and 51 µL/min/mg in data set [7].
Turning to `C[C@H](Nc1nnc(-c2c[nH]c3ncccc23)o1)c1ccccc1`, the IC50 in data set [1] was 0.035 µM; in data set [2], 2.6 µM; in data set [5] it was 0.098 µM. The values for the microsomal CLint in data set [3] and in data set [7] were 15 µL/min/mg and 17 µL/min/mg, respectively.
`Fc1ccc2c(-c3nnc(N[C@@H](c4cccnc4F)C4CC4)o3)c[nH]c2n1`: the concentration for half-maximal inhibition (IC50) was 0.0039 µM in data set [1]; 0.25 µM in data set [2]; 2.4 µM in data set [4]; 4 µM in data set [5]; over 50 µM in data set [6]. For the same compound, the microsomal CLint is under 14 µL/min/mg in data set [3] and 413 µL/min/mg in data set [7].
In the case of `Fc1ccccc1CNc1nnc(-c2c[nH]c3ncccc23)o1`, the half-inhibitory concentration (IC50) in data set [1] came to 0.035 µM; in data set [2], 1.6 µM; in data set [5], 0.58 µM. Moreover, the microsomal CLint stood at 32 µL/min/mg in data set [3] and 46 µL/min/mg in data set [7]. In addition, the Ratio IC50 in data set [8] was 17.
